Data set [1] deals with estrogen-stimulated growth of mouse uterus. Type of data set: in vivo. The note with it: immature mouse uterus, 10-100 ng per mouse, peak assay point of the dilution series. As to the method:
An in vivo wet weight bioassay measuring inhibition of estrogen-stimulated growth of uteri was performed. The procedure of Mizejewski et al. was used for the wet weight assay (see Mizejewski, G. J. et al. (1983); Mizejewski, G. J. et al. (1986); Mizejewski, G. J. and A. S. Warner (1989); Mizejewski, G. J. et al., "Separation of the Estrogen-Activated Growth-Regulatory Forms of Alpha-Fetoprotein in Mouse Amniotic Fluid," Biol of Reprod 42:887-898 (1990); and Allen, S.H.G. et al. (1993)).
Briefly, the synthesized powdered peptide was reconstituted in saline (1 mg/ml) to form a stock solution of the GIP. The stock solution was appropriately diluted to provide dosages of 25 to 100 ng/mouse. 0.1 ml of the appropriately diluted GIP was injected intraperitoneally into 15-18 day old Nya:NYLAR female mice. Control mice were injected with saline or other peptides, including a peptide encoded by a portion of the amino acid sequence of albumin and a random 34 amino acid peptide. 1 hour after this first injection, an estrogen challenge of 0.5 micrograms of E2 in 0.1 ml saline was given to determine the change in uterine responsiveness to E2 resulting from exposure to the first injection. 23 hours after the second injection, uteri were dissected, trimmed free of connective tissue and immediately weighed. The uterine wet weights were normalized to mouse body weight (mg uterine weight/g of body weight) to compensate for differences in body weight among litters of the same age. Percent inhibition of estrogen-stimulated uterine growth was calculated as described by Mizejewski et al. (1983).
Two separate bioassays for inhibition of estrogen-stimulated growth were used. The first was an in vivo bioassay measuring an estrogen-induced increase in wet weight of the immature mouse uterus in a 24-hour determination. Dosages of peptide fragments ranged from 10 to 100 ng, and the %inhibition given in Table 6 represents the peak assay point of the dilution series.

Data set [2] shares this test system. The note with it: full-length transformed AFP, see references cited; cited from earlier work.
The conditions of data set [3]: transformed human AFP preparations.

As for “SEQ ID NO:5: 5' fragment generated by cutting the 34 amino acid peptide SEQ ID NO:1 with trypsin (HEMTPVNPGV)”, the “Percent Growth Inhibition” value in data set [1] came out at 38%.
As to “SEQ ID NO:7: 3' fragment generated by cutting SEQ ID NO:1 with trypsin; 5 amino acids in length (LSEDK)”, in data set [1], the “Percent Growth Inhibition” value is on record as “no detectable growth inhibition”.

B1: full-length transformed AFP molecule: full-length alpha-fetoprotein transformed by incubation with estradiol (E2) (protein, UniProt P02771 19-609, looked up)
Alpha-fetoprotein: RTLHRNEYGIASILDSYQCTAEISLADLATIFFAQFVQEATYKEVSKMVKDALTAIEKPTGDEQSSGCLENQLPAFLEELCHEKEILEKYGHSDCCSQSEEGRHNCFLAHKKPTPASIPLFQVPEPVTSCEAYEEDRETFMNKFIYEIARRHPFLYAPTILLWAARYDKIIPSCCKAENAVECFQTKAATVTKELRESSLLNQHACAVMKNFGTRTFQAITVTKLSQKFTKVNFTEIQKLVLDVAHVHEHCCRGDVLDCLQDGEKIMSYICSQQDTLSNKITECCKLTTLERGQCIIHAENDEKPEGLSPNLNRFLGDRDFNQFSSGEKNIFLASFVHEYSRRHPQLAVSVILRVAKGYQELLEKCFQTENPLECQDKGEEELQKYIQESQALAKRSCGLFQKLGEYYLQNAFLVAYTKKAPQLTSSELMAITRKMAATAATCCQLSEDKLLACGEGAADIIIGHLCIRHEMTPVNPGVGQCCTSSYANRRPCFSSLVVDETYVPPAFSDDKFIFHKDLCQAQGVALQTMKQEFLINLVKQKPQITEEQLEAVIADFSGLLEKCCQGQEQEVCFAEEGQKLISKTRAALGV
modifications: transformed by estradiol incubation
B1: in data set [2], the “inhibition of estrogen-stimulated growth” value is listed as 20-40%. In addition, in data set [3], the “time activity is retained” value is listed as “one week or less”.
